Reference: patent US12049474B2, “Nucleoside prodrugs and uses related thereto” (Emory University, priority 2019, dated 2024)
Read-outs that look alike come from different tables or passages of the source.

What was measured:
[1] = Metabolic stability assay in human liver microsomes (HLM); type: in vitro ADME; conditions: pH 7.4, 3 μM test compound, NADPH, sampled 0-120 min, read-out: HLM t1/2
Description: The LC-MS/MS analysis was performed using Agilent 1260 Infinity II HPLC, coupled with an Agilent G6460 triple quadrupole mass spectrometer (Agilent Technologies, USA). All the data were acquired employing Agilent 6460 Quantitative Analysis data processing software.
Reverse-phase HPLC separation for each compound was achieved either on an Agilent Porshell 120 EC-C8 column (2.1×50 mm, 2.7 μm), or on an Agilent Zorbax XDB C18 column (2.1×50 mm, 3.5 μm) with a mobile phase composed of methanol-water-formic acid or acetonitrile-water-formic acid (0.1%) at a flow rate of 0.5 mL/min (changes for some compounds). Each method was developed in the presence of an internal standard (ISTD) d5-7-ethoxy coumarin. The column temperature was maintained at 40° C. for most of the samples otherwise noted. The detection was operated in the Agilent JetStream electrospray positive ionization using multiple reaction monitoring mode (MRM).
Other MS conditions were as follows: dwell time 100 ms; gas flow 10 L/min; nebulizer pressure 45 psi; delta EMV 200 V; fragmentor voltage and collision energy for individual compounds vary.
Test compounds were dissolved in 100% DMSO or 100% MeOH to make 10 mM stock solutions. Verapamil (Sigma Aldrich) aided as a positive control and was dissolved in 100% DMSO to make 10 mM stock solutions. The 10 mM stock solution of test and control compounds were further diluted in potassium phosphate buffer (100 mM, pH 7.4) to 500 μM to ensure the organic solvent content was <0.2%. Human liver microsomes (HLMs) were purchased from Xenotech at 20 mg/mL. NADPH (Sigma Aldrich) 10 mM stocks were prepared in deionized water.
The HLM assay was prepared in a 1.5 mL Eppendorf tube with a final volume of 1100 μL for duplicate runs. Each reaction contained phosphate buffer (928.4 μL), liver microsomes (55 μL), and test compound resulting in a final concentration of 3 μM (6.6 μL of 500 μM). The reaction was initiated with 110 μL of 10 mM NADPH. Aliquots (100 μL) were removed in duplicate at 0, 15, 30, 60, 120 min (for prodrug compounds) and 0, 5, 10, 15, 30 min (verapamil, positive control compound) time intervals and quenched in cold […] of 100% methanol which contained internal standard (ISTD: d5-7-ethoxy coumarin 4 μM). Before centrifugation each of the aliquoted tubes were vortexed to make sure compounds were in the solution. The aliquots were centrifuged at 12,000 g for 5 min and the supernatant removed and placed in an LC-MS vial. Each time point was assessed using LC-MS and the area, based on the extracted ion, was integrated with respect to the ISTD. Positive controls were conducted at a final volume of 550 μL to give each time point in a single run. A no-NADPH negative control with test or control compound was performed in a single run (150 μL) at the longest time point. Controls were processed and analyzed like the test compounds. Each time point was run in duplicates followed by in-between blank washes to avoid the carryover and to equilibrate the column.

CYP2D6 = CYP2D6 (Homo sapiens (Human), UniProt P10635); experiment: biochemical; type: biochemical
Sequence of CYP2D6 (P10635 whole entry, canonical isoform): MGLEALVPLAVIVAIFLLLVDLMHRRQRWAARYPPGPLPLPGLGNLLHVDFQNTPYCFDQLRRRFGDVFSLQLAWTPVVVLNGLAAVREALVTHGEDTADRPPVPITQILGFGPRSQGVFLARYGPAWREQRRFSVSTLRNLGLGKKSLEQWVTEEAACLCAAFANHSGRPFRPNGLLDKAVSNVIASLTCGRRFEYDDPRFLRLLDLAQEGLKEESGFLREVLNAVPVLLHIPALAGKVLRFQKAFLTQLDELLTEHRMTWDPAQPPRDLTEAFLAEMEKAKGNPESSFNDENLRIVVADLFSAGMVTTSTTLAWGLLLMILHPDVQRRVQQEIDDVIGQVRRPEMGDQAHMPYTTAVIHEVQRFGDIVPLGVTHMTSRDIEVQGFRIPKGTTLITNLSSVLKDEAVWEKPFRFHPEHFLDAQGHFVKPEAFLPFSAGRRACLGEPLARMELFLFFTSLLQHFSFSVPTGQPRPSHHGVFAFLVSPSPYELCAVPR
Description: (§1) The CYP450 inhibition assays utilized microsomes from insect cells expressing human recombinant individual cDNA-expressed CYP isoforms 3A4 and 2D6, as well as the fluorogenic probe that produces fluorescent metabolite. Standard inhibitors were co-incubated with fluorogenic substrates and their inhibitory potential (IC50) was determined. Assay conditions in terms of CYP450 protein concentration and time of incubation were standardized, enzyme kinetics parameters of each fluorescent probe substrate were estimated and IC50 values of inhibitors were determined and validated on different days to check reproducibility.
(§2) A 100 mM sodium phosphate buffer was prepared and adjusted to pH 7.4. In a separate falcon tube, a 2× enzyme/substrate (E/S) solution was prepared in phosphate buffer. The final concentration of CYP2D6 (CORNING®) and […] (AMMC) was 10 nM and 4 μM, and CYP3A4 (CORNING®) and 7-benzyloxy-4-(trifluoromethyl) coumarin (BFC) was 20 nM and 40 μM, respectively. In a separate falcon tube, a 2×NADPH regenerating system (NRS) was prepared in phosphate buffer. The final concentration for each component in the assay was as follows: • CYP2D6 assay: 0.008 mM NADPH, 3.3 mM glucose 6-phosphate, 0.4 U of glucose-6-phosphate dehydrogenase per mL
(§3) Both enzymatic assays were conducted in a 96-well microtiter plate (Black, CORNING® COSTAR®) with a final volume of 100 μL. Preparation of the plate began with the addition of 74 μL of the E/S in the first well, and 50 μL to all subsequent wells (from 2-11). The test compounds (1 μL) were dissolved in the first well to give the first row a final volume of 75 μL. A 1:3 serial dilution of the test compound was conducted by removing 25 μL from the first well and diluting it with the second and so forth until the tenth row. Final concentrations yielded a range from 200 μM-0.01 μM. Well no. 11 contained no inhibitor, and well no. 12 contained no enzyme. Both were used as controls for background fluorescence. The plate was incubated for 30 min at 37° C. After incubation, the reaction was initiated by the addition of 50 μL of the 2×NRS to each well.
Immediately (within 1 min) the fluorescence was measured using a microplate reader (BIOTEK® Synergy Neo2). CYP2D6 was monitored at Ex/Em=410/460 nm, and CYP3A4 monitored at Ex/Em=410/538 nm in kinetic mode that scanned every 5 min for 60 mins. Data was exported and analyzed using Graph Pad Prism 7. […] The IC50 value was derived after the data was fitted on a 10-point curve using a four-parameter logistic regression model.

CYP3A4 = CYP3A4 (Homo sapiens (Human), UniProt P08684); experiment: Fluorometric CYP450 enzyme inhibition assay, CYP3A4; type: biochemical
Sequence of CYP3A4 (P08684 whole entry): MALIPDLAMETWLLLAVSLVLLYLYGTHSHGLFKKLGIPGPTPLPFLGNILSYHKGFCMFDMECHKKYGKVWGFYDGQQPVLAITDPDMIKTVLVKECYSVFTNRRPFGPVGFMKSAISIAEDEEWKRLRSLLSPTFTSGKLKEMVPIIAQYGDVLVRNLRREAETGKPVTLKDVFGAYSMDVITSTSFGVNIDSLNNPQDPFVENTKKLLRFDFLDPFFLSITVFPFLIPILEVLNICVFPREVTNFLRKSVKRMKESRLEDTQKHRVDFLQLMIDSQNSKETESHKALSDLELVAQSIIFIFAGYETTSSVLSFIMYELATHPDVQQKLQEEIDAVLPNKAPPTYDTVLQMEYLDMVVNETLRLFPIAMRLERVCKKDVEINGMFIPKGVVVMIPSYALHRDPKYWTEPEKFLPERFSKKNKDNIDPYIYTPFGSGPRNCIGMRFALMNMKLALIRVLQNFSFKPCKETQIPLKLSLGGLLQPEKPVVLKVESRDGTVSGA
Description: as §1, §2
as §3, with “The test compounds (1 μL) were dissolved in the first well to give the first row a final volume of 75 μL.” left out
Immediately (within 1 min) the fluorescence was measured using a microplate reader (BIOTEK® Synergy Neo2). […] Data was exported and analyzed using Graph Pad Prism 7. […] The IC50 value was derived after the data was fitted on a 10-point curve using a four-parameter logistic regression model.

[2] = human recombinant CYP2D6, AMMC substrate, read-out: CYP450 IC50 2D6
[3] = human recombinant CYP3A4, BFC substrate, read-out: CYP450 IC50 3A4

SMILES	half-life at 3 µM [1] [min]	IC50 (CYP2D6; [2]) [µM]	IC50 (CYP3A4; [3]) [µM]	IC50 (CYP2D6) [µM]	IC50 (CYP3A4) [µM]
CCCCCCCCCCCCCCCOCCCCOP(=O)(O)COC(C)Cn1cnc2c(N)ncnc21.N (racemic) [NP-PD-150, Ammonium 4-pentadecoxybutoxy-[[rac-(1R)-2-(6-aminopurin-9-yl)-1-methyl-ethoxy]methyl]phosphinate]	48	–	–	–	–
CCCCCCCCCCCCCCOCCCCCOP(=O)(O)COC(C)Cn1cnc2c(N)ncnc21.N (racemic) [NP-PD-154, Ammonium [rac-(1R)-2-(6-aminopurin-9-yl)-1-methyl-ethoxy]methyl-(5-tetradecoxypentoxy)phosphinate]	29	–	–	–	–
CCCCCCCCCCCCCCCCCOCCOP(=O)(O)COC(C)Cn1cnc2c(N)ncnc21.N (racemic) [NP-PD-157, Ammonium 2-heptadecoxyethoxy-[[rac-(1R)-2-(6-aminopurin-9-yl)-1-methyl-ethoxy]methyl]phosphinate]	35	–	–	–	–
C#CCCCCCCCCCCCCCCCCSCCCOP(=O)(O)CO[C@H](C)Cn1cnc2c(N)ncnc21.N [BI-1-057, Ammonium 3-(octadec-17-yn-1-ylthio)propyl (R)-(((1-(6-amino-9H-purin-9-yl)propan-2-yl)oxy)methyl)phosphonate]	> 120	20.2	37	–	–
N.[2H]C([2H])([2H])C([2H])([2H])CCCCCCCCCCCCCOP(=O)(O)CO[C@H](C)Cn1cnc2c(N)ncnc21 [EJM-8-030, Ammonium pentadecyl-14,14,15,15,15-d5 (R)-(((1-(6-amino-9H-purin-9-yl)propan-2-yl)oxy)methyl)phosphonate]	20	–	–	38.3	52.2
N.[2H]C([2H])([2H])CCCCCCCCCCCCCCCOP(=O)(O)CO[C@H](C)Cn1cnc2c(N)ncnc21 [EJM-8-036, Ammonium hexadecyl-16,16,16-d3 (R)-(((1-(6-amino-9H-purin-9-yl)propan-2-yl)oxy)methyl)phosphonate]	21	–	–	20.6	87.4
C[C@H](Cn1cnc2c(N)ncnc21)OCP(=O)(O)OCCCSCCCCCCCCCCCSc1ccccc1.N [MD-1-119, Ammonium 3-((11-(phenylthio)undecyl)thio)propyl (R)-(((1-(6-amino-9H-purin-9-yl)propan-2-yl)oxy)methyl)phosphonate]	12	36.3	11	–	–
CCCCCCCCCCSCCCCCCCCCOP(=O)(O)CO[C@H](C)Cn1cnc2c(N)ncnc21.N [MD-1-122, Ammonium 9-(decylthio)nonyl (R)-(((1-(6-amino-9H-purin-9-yl)propan-2-yl)oxy)methyl)phosphonate]	13	–	–	–	–
CCCCCCCCCCCCCCCCSCCCOP(=O)(O)CO[C@H](C)Cn1cnc2c(N)ncnc21 [MD-1-123, Ammonium 3-(hexadecylthio)propyl (R)-(((1-(6-amino-9H-purin-9-yl)propan-2-yl)oxy)methyl) phosphonate]	42	110	58	–	–
COC(=O)CCCCCCCCCCCCCCCSCCCOP(=O)(O)CO[C@H](C)Cn1cnc2c(N)ncnc21.N [MD-1-124, Ammonium 3-((16-methoxy-16-oxohexadecyl)thio)propyl (R)-(((1-(6-amino-9H-purin-9-yl)propan-2-yl)oxy)methyl)phosphonate]	36	19.2	40.8	–	–
C#CCCCCCCCCCCCCCCSCCCOP(=O)(O)CO[C@H](C)Cn1cnc2c(N)ncnc21 [MD-1-182, Ammonium 3-(hexadec-15-yn-1-ylthio)propyl (R)-(((1-(6-amino-9H-purin-9-yl)propan-2-yl)oxy)methyl) phosphonate]	96	–	–	–	–
C[C@H](Cn1cnc2c(N)ncnc21)OCP(=O)(O)OCCCSCCCCCCCCCCC#Cc1ccccc1.N [MD-1-183, Ammonium 3-((12-phenyldodec-11-yn-1-yl)thio)propyl (R)-(((1-(6-amino-9H-purin-9-yl)propan-2-yl)oxy)methyl)phosphonate]	72	> 20	–	–	–
C[C@H](Cn1cnc2c(N)ncnc21)OCP(=O)(O)OCCCSCCCCCCCCCCCCc1ccccc1.N [MD-1-184, Ammonium 3-((12-phenyldodecyl)thio)propyl (R)-(((1-(6-amino-9H-purin-9-yl)propan-2-yl)oxy)methyl)phosphonate]	69	> 20	–	–	–
CCCCCCCCCCCCCCCCCCSCCCOP(=O)(O)CO[C@H](C)Cn1cnc2c(N)ncnc21 [MD-1-185, Ammonium 3-(octadecylthio)propyl (R)-(((1-(6-amino-9H-purin-9-yl)propan-2-yl)oxy)methyl) phosphonate]	> 120	–	–	–	–
CCCCCCCCCCCCCCCCCCCCSCCCOP(=O)(O)CO[C@H](C)Cn1cnc2c(N)ncnc21.N [MD-1-186, Ammonium 3-(icosylthio)propyl (R)-(((1-(6-amino-9H-purin-9-yl)propan-2-yl)oxy)methyl)phosphonate]	> 120	–	–	–	–
CCCCCCCCCCCCCSCCCCCCOP(=O)(O)CO[C@H](C)Cn1cnc2c(N)ncnc21 [MD-1-219, Ammonium 6-(tridecylthio)hexyl (R)-(((1-(6-amino-9H-purin-9-yl)propan-2-yl)oxy)methyl) phosphonate]	66	–	–	–	–
CCCCSCCCCCCCCCCCCCCCOP(=O)(O)CO[C@H](C)Cn1cnc2c(N)ncnc21 [MD-1-221, Ammonium 15-(butylthio)pentadecyl (R)-(((1-(6-amino-9H-purin-9-yl)propan-2-yl)oxy)methyl) phosphonate]	–	> 20	> 20	–	–
